From US20120122870A1, “Treatment Of Ischemia-Reperfusion Injury” (MUSC FOUNDATION FOR RESEARCH DEVELOPMENT, priority 2009, published 2012)

target: T1, recombinant human SK (Homo sapiens, UniProt Q9NYA1); experiment: Recombinant human SK activity assay ([3H]sphingosine to [3H]S1P); assay type: biochemical; conditions: Human SK incubated with 6 μg/mL of compound; percentage of SK activity inhibited
T1 construct: GST (glutathione-S-transferase) (N); made in house; host or cells: bacteria (pGEX bacterial expression vector)
Method: SK activity is measured by incubation of the recombinant SK with [^3H]sphingosine and 1 mM ATP under defined conditions, followed by extraction of the assay mixture with chloroform:methanol under basic conditions. […] Radioactivity in aliquots of the aqueous phase is then quantified as a measure of [^3H]S1P formation.
(§1) Human SK was incubated with 6 μg/mL of the indicated compounds, and then assayed for activity as described above. Values in the column labeled “Recombinant SK (% inhibition)” represent the percentage of SK activity that was inhibited. MDA-MB-231 cells were incubated with 20 μg/mL of the indicated compounds and then assayed for endogenous SK activity as indicated above. Values in the column labeled “Cellular S1P (% inhibition)” represent the percentage of S1P production that was inhibited. Additionally, MDA-MB-231 cells were treated with varying concentration of certain compounds and the amount of S1P produced by the cells was determined. Values in the column labeled “Cellular S1P IC50 (μM)” represent the concentration of compound required to inhibit the production of S1P by 50%. ND=not determined.

T1 sequence (Q9NYA1 whole entry): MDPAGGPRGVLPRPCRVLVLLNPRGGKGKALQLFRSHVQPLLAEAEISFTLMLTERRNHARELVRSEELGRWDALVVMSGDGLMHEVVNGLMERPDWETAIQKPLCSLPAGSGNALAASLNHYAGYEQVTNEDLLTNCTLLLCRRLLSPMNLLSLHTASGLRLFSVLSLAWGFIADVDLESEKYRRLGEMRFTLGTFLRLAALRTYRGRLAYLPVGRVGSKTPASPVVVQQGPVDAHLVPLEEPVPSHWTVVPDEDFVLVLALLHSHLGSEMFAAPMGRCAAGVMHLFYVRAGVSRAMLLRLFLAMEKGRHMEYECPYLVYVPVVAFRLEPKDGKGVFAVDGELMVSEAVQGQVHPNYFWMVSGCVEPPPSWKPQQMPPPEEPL

| Recombinant SK (% inhibition) [%] | inhibition at 6 µg/mL [%] | Compound |
| --- | --- | --- |
| 25 | – | 4-(4-Chloro-phenyl)-thiazole-2-carboxylic acid 4-phenoxy benzylamide [B54] |
| – | 0 | O=C(NC1CC1)C12CC3CC(C1)CC(c1ccc(Cl)cc1)(C3)C2 [A2, 3-(4-Chloro-phenyl)-adamantane-1-carboxylic acid cyclopropylamide] |
| – | 6 | CCSCCNC(=O)C12CC3CC(C1)CC(c1ccc(Cl)cc1)(C3)C2 [A3, 3-(4-Chloro-phenyl)-adamantane-1-carboxylic acid (2-ethylsulfanyl-ethyl)-amide] |
| – | 19 | CSc1ccc(CNC(=O)C23CC4CC(C2)CC(c2ccc(Cl)cc2)(C4)C3)cc1 [A14, 3-(4-Chloro-phenyl)-adamantane-1-carboxylic acid 4-methylsulfanyl-benzylamide] |
| – | 8 | O=C(NCc1ccc(C(F)(F)F)cc1)C12CC3CC(C1)CC(c1ccc(Cl)cc1)(C3)C2 [A16, 3-(4-Chloro-phenyl)-adamantane-1-carboxylic acid 4-trifluoromethyl-benzylamide] |
| – | 56 | O=C(NCc1cc(C(F)(F)F)cc(C(F)(F)F)c1)C12CC3CC(C1)CC(c1ccc(Cl)cc1)(C3)C2 [A17, 3-(4-Chloro-phenyl)-adamantane-1-carboxylic acid 3,5-bis-trifluoromethyl-benzylamide] |
| – | 0 | O=C(NCc1cc(F)cc(C(F)(F)F)c1)C12CC3CC(C1)CC(c1ccc(Cl)cc1)(C3)C2 [A18, 3-(4-Chloro-phenyl)-adamantane-1-carboxylic acid 3-fluoro-5-trifluoromethyl-benzylamide] |
| – | 0 | O=C(NCc1cc(F)cc(F)c1)C12CC3CC(C1)CC(c1ccc(Cl)cc1)(C3)C2 [A20, 3-(4-Chloro-phenyl)-adamantane-1-carboxylic acid 3,5-difluoro-benzylamide] |
| – | 65 | O=C(NCc1ccc(F)c(F)c1)C12CC3CC(C1)CC(c1ccc(Cl)cc1)(C3)C2 [A21, 3-(4-Chloro-phenyl)-adamantane-1-carboxylic acid 3,4-difluoro-benzylamide] |
| – | 56 | O=C(NCc1cc(F)c(F)c(F)c1)C12CC3CC(C1)CC(c1ccc(Cl)cc1)(C3)C2 [A22, 3-(4-Chloro-phenyl)-adamantane-1-carboxylic acid 3,4,5-trifluoro-benzylamide] |
| – | 0 | O=C(NCc1ccc(F)c(Cl)c1)C12CC3CC(C1)CC(c1ccc(Cl)cc1)(C3)C2 [A23, 3-(4-Chloro-phenyl)-adamantane-1-carboxylic acid 3-chloro-4-fluoro-benzylamide] |
| – | 20 | O=C(NCc1ccc(F)c(C(F)(F)F)c1)C12CC3CC(C1)CC(c1ccc(Cl)cc1)(C3)C2 [A24, 3-(4-Chloro-phenyl)-adamantane-1-carboxylic acid 4-fluoro-3-trifluoromethyl-benzylamide] |
| – | 47 | O=C(NCc1ccc(F)cc1Cl)C12CC3CC(C1)CC(c1ccc(Cl)cc1)(C3)C2 [A25, 3-(4-Chloro-phenyl)-adamantane-1-carboxylic acid 2-chloro-4-fluoro-benzylamide] |
| – | 36 | O=C(NCc1ccc(Cl)c(C(F)(F)F)c1)C12CC3CC(C1)CC(c1ccc(Cl)cc1)(C3)C2 [A26, 3-(4-Chloro-phenyl)-adamantane-1-carboxylic acid 4-chloro-3-trifluoromethyl-benzylamide] |
| – | 50 | NCc1c(Cl)c(Cl)c(Cl)c(CNC(=O)C23CC4CC(C2)CC(c2ccc(Cl)cc2)(C4)C3)c1Cl [A27, 3-(4-Chloro-phenyl)-adamantane-1-carboxylic acid 3-aminomethyl-2,4,5,6-tetrachloro-benzylamide] |
| – | 6 | CC(NC(=O)C12CC3CC(C1)CC(c1ccc(Cl)cc1)(C3)C2)c1ccc(Cl)cc1 (centres unmarked) [A28, 3-(4-Chloro-phenyl)-adamantane-1-carboxylic acid [1-(4-chloro-phenyl)-ethyl]-amide] |
| – | 1 | CS(=O)(=O)c1ccc(CNC(=O)C23CC4CC(C2)CC(c2ccc(Cl)cc2)(C4)C3)cc1 [A30, 3-(4-Chloro-phenyl)-adamantane-1-carboxylic acid 4-methanesulfonyl-benzylamide] |
| – | 74 | CN(C)c1ccc(CNC(=O)C23CC4CC(C2)CC(c2ccc(Cl)cc2)(C4)C3)cc1 [A31, 3-(4-Chloro-phenyl)-adamantane-1-carboxylic acid 4-dimethylamino-benzylamide] |
| – | 17 | O=C(NCc1ccc(OC(F)(F)F)cc1)C12CC3CC(C1)CC(c1ccc(Cl)cc1)(C3)C2 [A32, 3-(4-Chloro-phenyl)-adamantane-1-carboxylic acid 4-trifluoromethoxy-benzylamide] |
| – | 10 | O=C(NCc1cccc(OC(F)(F)F)c1)C12CC3CC(C1)CC(c1ccc(Cl)cc1)(C3)C2 [A33, 3-(4-Chloro-phenyl)-adamantane-1-carboxylic acid 3-trifluoromethoxy-benzylamide] |
| 0 | – | O=C(NCc1ccc(Oc2ccccc2)cc1)C12CC3CC(C1)CC(c1ccc(Cl)cc1)(C3)C2 [A34, 3-(4-Chloro-phenyl)-adamantane-1-carboxylic acid 4-phenoxy-benzylamide] |

test system: endogenous SK activity in MDA-MB-231 cells; experiment: Cellular S1P production (endogenous SK activity) in MDA-MB-231 cells; assay type: cell-based; conditions: Homo sapiens, MDA-MB-231, MDA-MB-231 cells incubated with 20 μg/mL of compound; percentage of S1P production inhibited
Method: as §1

| Compound | inhibition at 20 µg/mL [%] |
| --- | --- |
| CN1CCCC1CCNC(=O)c1nc(-c2ccc(Cl)cc2)cs1 (centres unmarked) [B45, 4-(4-Chloro-phenyl)-thiazole-2-carboxylic acid [2-(1-methyl-pyrrolidin-2-yl)-ethyl]-amide] | 0 |
| CN1CCN(NC(=O)c2nc(-c3ccc(Cl)cc3)cs2)CC1 [B46, 4-(4-Chloro-phenyl)-thiazole-2-carboxylic acid (4-methyl-piperazin-1-yl)-amide] | 0 |
| Clc1ccc(-c2csc(N(CCCc3ccccc3)CCCc3ccccc3)n2)cc1 [B71, [4-(4-Chloro-phenyl)-thiazol-2-yl]-bis-(3-phenyl-propyl)-amine] | 15 |
| Clc1ccc(-c2csc(N(Cc3ccccc3)Cc3ccccc3)n2)cc1 [B72, Dibenzyl-[4-(4-chloro-phenyl)-thiazol-2-yl]-amine] | 27 |
| O=C(NCCN1CCOCC1)c1nc(-c2ccc(Cl)cc2)cs1 [B76, 4-(4-Chloro-phenyl)-thiazole-2-carboxylic acid (2-morpholin-4-yl-ethyl)-amide] | 81 |
| CN1CCCC1CCNC(=O)c1cccc(-c2ccc(Cl)cc2)c1 (centres unmarked) [B80, 4′-Chloro-biphenyl-3-carboxylic acid [2-(1-methyl-pyrrolidin-2-yl)-ethyl]-amide] | 70 |
| O=C(NCc1ccncc1)c1cccc(-c2ccc(Cl)cc2)c1 [B81, 4′-Chloro-biphenyl-3-carboxylic acid (pyridin-4-ylmethyl)-amide] | 14 |
| CN1CCC(NC(=O)c2cccc(-c3ccc(Cl)cc3)c2)CC1 [B82, 4′-Chloro-biphenyl-3-carboxylic acid (1-methyl-piperidin-4-yl)-amide] | 67 |
| O=C(Nc1ccc(O)cc1)c1cccc(-c2ccc(Cl)cc2)c1 [B83, 4′-Chloro-biphenyl-3-carboxylic acid (4-hydroxy-phenyl)-amide] | 55 |
| O=C(NCCc1ccncc1)c1cccc(-c2ccc(Cl)cc2)c1 [B84, 4′-Chloro-biphenyl-3-carboxylic acid (2-pyridin-4-yl-ethyl)-amide] | 76 |
| O=C(Nc1nc2cc(Cl)ccc2o1)c1ccccc1[N+](=O)[O-] [B87, N-(5-Chloro-benzooxazol-2-yl)-2-nitro-benzamide] | 64 |
| O=C(C=Cc1ccccc1)Nc1nc2cc(Cl)ccc2o1 [B88, N-(5-Chloro-benzooxazol-2-yl)-3-phenyl-acrylamide] | 46 |
| O=C(C=Cc1ccc([N+](=O)[O-])cc1)Nc1nc2cc(Cl)ccc2o1 [B89, N-(5-Chloro-benzooxazol-2-yl)-3-(4-nitro-phenyl)-acrylamide] | 74 |
| C=CCCCCCCCCC(=O)Nc1nc2cc(Cl)ccc2o1 [B90, Undec-10-enoic acid (5-chloro-benzooxazol-2-yl)-amide] | 39 |
| CCCCCCCCCCCCCC(=O)Nc1nc2cc(Cl)ccc2o1 [B91, Tetradecanoic acid (5-chloro-benzooxazol-2-yl)-amide] | 0 |
| CCCCCCCCCCCCCCCC(=O)Nc1nc2cc(Cl)ccc2o1 [B92, Hexadecanoic acid (5-chloro-benzooxazol-2-yl)-amide] | 4 |
| O=C(Nc1ccc(Cl)c(C(F)(F)F)c1)Nc1nc2cc(Cl)ccc2o1 [B93, 1-(5-Chloro-benzooxazol-2-yl)-3-(4-chloro-3-trifluoromethyl-phenyl)-urea] | 53 |
| O=C(Nc1ccc(Cl)c(C(F)(F)F)c1)Nc1nc2ccccc2s1 [B94, 1-Benzothiazol-2-yl-3-(4-chloro-3-trifluoromethyl-phenyl)-urea] | 13 |
| O=C(Nc1nc2cc(Cl)ccc2s1)c1ccccc1O [B96, N-(5-Chloro-benzothiazol-2-yl)-2-hydroxy-benzamide] | 18 |
| O=C(Nc1nc2cc(Cl)ccc2o1)c1cccc(F)c1 [B97, N-(5-Chloro-benzooxazol-2-yl)-3-fluoro-benzamide] | 38 |

same assay, conditions: Homo sapiens; MDA-MB-231 cells, varying concentrations; concentration inhibiting S1P production by 50%

| IC50 [µM] | Compound |
| --- | --- |
| 5 | O=C(NCCN1CCOCC1)c1nc(-c2ccc(Cl)cc2)cs1 [B76, 4-(4-Chloro-phenyl)-thiazole-2-carboxylic acid (2-morpholin-4-yl-ethyl)-amide] |
| 22 | O=C(Nc1nc2cc(Cl)ccc2o1)c1ccccc1[N+](=O)[O-] [B87, N-(5-Chloro-benzooxazol-2-yl)-2-nitro-benzamide] |
| 5.8 | O=C(C=Cc1ccc([N+](=O)[O-])cc1)Nc1nc2cc(Cl)ccc2o1 [B89, N-(5-Chloro-benzooxazol-2-yl)-3-(4-nitro-phenyl)-acrylamide] |
